What was measured:
[1] = MTT cell viability assay, murine primary hepatocytes; format: cell-based, BALB/c mice; conditions: BALB/c, mouse
Text: Primary human hepatocytes were isolated from liver segments obtained from adult patients undergoing partial hepatectomy (Service de Chirurgie Digestive, Hépato-Bilio Pancréatique, Hôpital Pitié Salpêtrière, Paris, France). Primary simian hepatocytes were isolated from liver segments collected from healthy Macaca fascicularis monkeys from CEA, Fontenay aux Roses, France. All hepatocytes were obtained using collagenase perfusion as previously described ([40]). Simian hepatocytes were immediately cryopreserved with a Nicool-Freezal controlled rate freezer (Air Liquide Santé, Marne la Vallée, France) and then used when needed after fast thawing at 37°C. Primary murine hepatocytes were isolated from liver segments collected from BALB/c mice. Human and murine hepatocytes were used directly after their isolation. Cells were seeded in 96-well plates (Falcon; Becton Dickinson Labware Europe, France) coated with collagen I (BD Bioscience, USA) at a density of 80,000 cells per well. […]
The toxicity of M1 toward primary hepatocytes and HepG2-CD81 cells was evaluated through the MTT {[3-(4,5-dimethyl-2-thiazolyl)-2,5-diphenyl-2H-tetrazolium bromide]} test ([42]). […] Then, MTT was replaced by a mixture of DMSO-ethanol (1:1) to dissolve formazan crystals and the absorbance was read at 540 nm on a FlexStation plate reader.

[2] = tested on: P. falciparum F32-ART5 and F32-TEM; assay: Recrudescence assay F32-ART5 versus F32-TEM; format: cell-based, Plasmodium falciparum; conditions: 48 h drug exposure; M1 2.5 and 10 μM; artemisinin 18 μM
Protocol: The Plasmodium falciparum artemisinin-resistant strain F32-ART5 and its twin artemisinin-sensitive line F32-TEM ([30], [31]) were cultivated at 37°C with 5% CO2 in human red blood cells (EFS [French Blood Bank]) diluted to 2% hematocrit in RPMI 1640 medium supplemented with 5% human serum (EFS) as previously reported ([47]).
A recrudescence assay was performed to evaluate the ability of the F32-ART5 parasite line to survive drug exposure in comparison to that of the F32-TEM parasite line ([30], [31]) in order to evaluate the risk of cross-resistance between artemisinin and M1. D-Sorbitol-synchronized ring-stage parasites at 3% parasitemia (2% hematocrit) were exposed to the drug for 48 h. After drug exposure, parasite cultures were washed with RPMI 1640 medium and replaced in normal drug-free culture conditions. The time to parasite recrudescence was determined as the time required to reach initial parasitemia. […] Each experiment, performed in parallel for F32-ART5 and F32-TEM cultivated under the same conditions to generate paired results, was carried out at least three times independently and data statistically analyzed.
A statistical analysis (log-rank test) was carried out on data from the recrudescence assay and the QSA using a Kaplan-Meier survival analysis considering censored data. The final event was defined as the time necessary for cultures to reach initial parasitemia. […]

hERG channel = molecular target: T1, hERG channel (Homo sapiens, UniProt Q12809); assay: Predictor hERG fluorescence polarization binding assay; conditions: 0.01 nM to 100 µM
T1 construct: purchased ThermoFischer PV5665
T1 sequence (Q12809 whole entry): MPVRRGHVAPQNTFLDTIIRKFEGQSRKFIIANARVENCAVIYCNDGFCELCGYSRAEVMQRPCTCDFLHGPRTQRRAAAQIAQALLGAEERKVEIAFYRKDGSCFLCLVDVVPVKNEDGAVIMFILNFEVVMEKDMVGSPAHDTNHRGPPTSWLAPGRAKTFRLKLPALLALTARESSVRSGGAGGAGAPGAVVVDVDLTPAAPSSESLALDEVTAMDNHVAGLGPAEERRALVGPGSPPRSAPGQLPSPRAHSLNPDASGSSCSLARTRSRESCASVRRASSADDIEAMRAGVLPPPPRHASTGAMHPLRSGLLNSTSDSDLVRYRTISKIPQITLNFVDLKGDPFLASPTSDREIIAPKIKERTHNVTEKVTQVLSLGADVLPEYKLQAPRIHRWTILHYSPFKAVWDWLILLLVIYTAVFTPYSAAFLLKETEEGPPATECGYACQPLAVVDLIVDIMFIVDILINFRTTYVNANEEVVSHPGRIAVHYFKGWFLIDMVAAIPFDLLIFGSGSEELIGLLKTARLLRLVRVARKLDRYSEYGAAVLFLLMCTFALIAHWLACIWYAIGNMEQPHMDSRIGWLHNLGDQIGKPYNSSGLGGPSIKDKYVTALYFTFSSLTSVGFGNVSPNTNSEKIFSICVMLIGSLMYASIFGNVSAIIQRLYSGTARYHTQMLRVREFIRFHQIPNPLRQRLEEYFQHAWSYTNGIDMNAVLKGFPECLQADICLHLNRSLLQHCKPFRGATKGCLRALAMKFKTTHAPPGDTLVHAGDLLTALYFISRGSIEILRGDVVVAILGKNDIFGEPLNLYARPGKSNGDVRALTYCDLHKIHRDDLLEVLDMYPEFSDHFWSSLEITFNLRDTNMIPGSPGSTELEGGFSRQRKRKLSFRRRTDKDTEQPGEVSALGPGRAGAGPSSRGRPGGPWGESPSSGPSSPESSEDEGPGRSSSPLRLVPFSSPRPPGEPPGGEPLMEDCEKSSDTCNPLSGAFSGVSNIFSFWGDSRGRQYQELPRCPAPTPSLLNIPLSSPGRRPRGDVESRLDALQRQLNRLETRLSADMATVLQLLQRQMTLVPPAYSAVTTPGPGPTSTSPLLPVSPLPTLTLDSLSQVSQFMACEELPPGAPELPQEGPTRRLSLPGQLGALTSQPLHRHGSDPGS
Protocol: hERG channel binding was determined with the PredictorTM hERG Fluorescence Polarization Assay (PV5665 ThermoFischer). Briefly, reagents were thawed, and were mixed by pipetting 20x with PredictorTM hERG membranes. The fluorescent tracer was diluted at 4 nM in the PredictorTM hERG buffer. […] The assay was performed in a 96-well Greiner microplate (675093 Dutscher). 25 µL of each concentration of M1 were dispensed into the plate. Then, 50 µL of the PredictorTM hERG membranes and 25 µL of the fluorescent tracer 4 nM were added. The plate was incubated at room temperature for 4 h. The fluorescence polarization measurements were made using a Synergy 2 microplate reader (Biotek Instrument, Colmar, France). Both parallel and perpendicular fluorescence were measured using 530/25 nm excitation and 590/35 nm emission filters with a 570 nm dichroic mirror. The gain was fixed at 110. A known hERG channel blocker (E-4031), provided by the kit, was assayed as positive reference. Both E-4031 and M1 were tested at final concentrations ranging from 0.01 nM to 100 µM. IC50 values were determined graphically by plotting the % inhibition versus the logarithm of 9 M1 concentrations in the assay solution using the GraphPad Prism software (version 6.01, GraphPad Software, La Jolla, CA, USA).

[3] = tested on: P. yoelii in HepG2-CD81 cells; parameters: method as in PMID 25791675; conditions: liver stage of Plasmodium yoelii infecting HepG2-CD81 cells; cited from earlier work
Plasmodium berghei = tested on: Plasmodium berghei; parameters: method as in PMID 25791675; conditions: 2.5 mg/kg twice a day for 3 days; untreated group 9%; cited from earlier work
HepG2 or CHO cell lines = tested on: HepG2 or CHO cell lines; parameters: method as in PMID 25791675; conditions: cited from earlier work

Cc1ccc(-c2cc3nc(NC(C)(C)C)[nH]c(=O)c3s2)cc1 [Metabolite M1, 2-(tert-Butylamino)-6-(p-tolyl)thieno[3,2-d]pyrimidin-4(3H)-one]
CC50 at 2 days [1]: > 60 µM
recrudescence of F32-ART5 versus F32-TEM (cross-resistance with artemisinin) [2]: no cross-resistance with artemisinin
binding toward the hERG channel (hERG channel): no affinity
EC50 [3]: 0.035 µM
parasitemia at day 4 (Plasmodium berghei): 4.9%
CC50 (HepG2 or CHO cell lines): ≥ 25 µM

— article PMC8557901 (Microbiology Spectrum, 2021)
